Reference: US20150315218A1, “SALTS OF PRODRUGS OF PIPERAZINE AND SUBSTITUTED PIPERIDINE ANTIVIRAL AGENTS” (Bristol-Myers Squibb Company, priority 2004, published 2015)
In brackets after ≈: the same amount, converted by molar mass. Read-outs that look alike come from different tables or passages of the source. One block for each compound: values may come before it.

Assays:
[1] = Oral dosing studies of prodrugs Ie and If in rats (Table 47); type: in vivo, rat; conditions: for parent molecule in plasma following PO dosing of prodrug: rats, oral dosing of prodrug Ie or If
Experimental: Prodrug Ie was dosed orally to rats using methodology similar to that described above for the other prodrugs. […] Prodrug If was dosed orally to rats using methodology similar to that described above for the other prodrugs.

[2] = 2-week oral dose rat toxicology / TK study F; type: in vivo; conditions: for AUC(0-t): Sprague-Dawley, rat, plasma, oral, dosages 200 mg/kg/day, read-out: AUC0-24 h on Day 14
Experimental: In the 2-week oral rat study F (n=six/sex/group), Compound IVe was administered at daily doses of 15, 75, or 200 mg/kg. […] On Day 14, AUC0-24 h values were slightly higher in females (≦644 μg*hr/ml) compared to males (526.88 μg*hr/ml) at dosages 200 mg/kg/day. The oral (PO) results from Study F are in Table 5.

[3] = target: T1, alkaline phosphatase (human placenta, Sigma) (Homo sapiens, UniProt P05187); assay: In vitro conversion in alkaline phosphatase (Table 1, note 1); type: in vitro ADME; conditions: ~0.2 mM prodrug, ~1.4 unit ALP, pH 8 Tris buffer; full wording: Complete and rapid conversion to parent without any intermediate formation
T1 construct: Qualitative in vitro studies using human placental alkaline phosphatase; purchased Sigma; host or cells: human placenta (as the result head says)
T1 sequence (P05187 23-506 limits assumed): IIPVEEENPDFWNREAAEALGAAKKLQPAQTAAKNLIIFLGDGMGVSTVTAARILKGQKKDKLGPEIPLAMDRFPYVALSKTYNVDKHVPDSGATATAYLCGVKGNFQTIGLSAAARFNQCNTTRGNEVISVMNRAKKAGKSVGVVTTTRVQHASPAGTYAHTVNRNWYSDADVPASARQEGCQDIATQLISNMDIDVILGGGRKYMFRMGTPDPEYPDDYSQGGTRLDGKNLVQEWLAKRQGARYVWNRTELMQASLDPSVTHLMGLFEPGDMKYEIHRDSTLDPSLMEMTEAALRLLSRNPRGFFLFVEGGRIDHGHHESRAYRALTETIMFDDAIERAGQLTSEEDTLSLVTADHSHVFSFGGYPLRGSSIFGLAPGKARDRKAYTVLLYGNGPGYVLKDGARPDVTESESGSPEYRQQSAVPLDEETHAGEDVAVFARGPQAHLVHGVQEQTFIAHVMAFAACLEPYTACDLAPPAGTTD

[4] = physchem; conditions: pH 6.5, aqueous buffer
[5] = IV and oral rat PK (MAP) studies A, B, C of phosphate prodrugs and parent studies A1, B1, C1; type: in vivo, Sprague-Dawley rats; conditions: for In vivo conversion in Rats-iv (note 2) MAP study: dose equiv. to 1 mg/Kg of the parent; for In vivo conversion in Rats-iv (note 2) MAP study / In vivo conversion in Rats-oral (note 2) MAP study: full wording: Rapid generation of parent in plasma; for half-life / clearance / Vd: male, Sprague-Dawley, rat, 1 mg/kg; for half-life / clearance / Vd / AUC 0-24 h (μM * hr) / Cmax (uM) / Cp @ 24 hr p.o. (nM): rats; for half-life: after IV prodrug dosing equivalent to 1 mpk of parent, read-out: T1/2 i.v. (converted); for half-life / AUC 0-24 h (μM * hr) / Cmax (uM) / Cp @ 24 hr p.o. (nM): analyte = label; for clearance / Vd: prodrug IV equivalent to 1 mpk of parent; for clearance: read-out: CL i.v.; for Vd: read-out: Vss i.v.; for In vivo conversion in Rats-oral (note 2) MAP study: dose equiv. to 5 mg/Kg of the parent; for AUC 0-24 h (μM * hr) / Cmax (uM) / Cp @ 24 hr p.o. (nM): after PO prodrug dosing equivalent to 5 mpk of parent
Experimental: The rats for oral dosing studies were fasted overnight. […] The dosing solutions of all three prodrugs for both IV and oral administration were prepared in 100% normal saline at 1 mg/mL (dosing solution concentrations were parent compound equivalent). Plasma samples were collected in EDTA vacutainers over 24 hrs, and analyzed by LC/MS/MS for both the prodrugs and parent molecules. Pharmacokinetic analysis was performed on Kinetica™.
Plasma and tissue samples were collected and stored at −20° C. until analysis. […] Rats were fasted overnight in PO studies. […] In the PO studies, rats (n=3) received PO doses of 5 and 100 mg/kg.
Male Sprague-Dawley rats (300-350 g, Hilltop Lab Animals, Inc., Scottdale, Pa.) with cannulas implanted in the jugular vein and/or bile duct were used. The rats were fasted overnight in the PO pharmacokinetic studies. Blood samples of 0.3 ml were collected from the jugular vein in EDTA-containing microtainer tubes (Becton Dickinson, Franklin Lakes, N.J.), and centrifuged to separate plasma.

[6] = Cytotoxicity assay (XTT dye reduction) in MT-2 cells; type: cell-based; conditions: human, six days
[7] = system: HIV-1 T-tropic strain LAI; assay: Antiviral assay: HIV-1 LAI infection of MT-2 cells, reverse transcriptase readout (EC50, Table 48); type: cell-based; conditions: Human immunodeficiency virus 1, MT2, read-out: EC50-LAI
Description: The materials and experimental procedures used to assess the anti-HIV activity of the parent compounds which are generated from the prodrugs in vivo are described below:
• The human T cell line MT-2 and PM1 (AIDS Research and Reference Reagent Program, National Institutes of Health) were maintained and propagated in Medium RPMI-1640 (Invitrogen, Carlsbad, Calif.), containing 10% fetal Bovine serum. (FBS, Sigma, St. Louis, Mo.).
• Laboratory strains of HIV-1—the T-tropic strain LAI was obtained through the AIDS Research and Reference Reagent Program, National Institutes of Health. It was amplified in MT-2 cells and titered using a virus yield assay (2). Detection was achieved through use of a reverse transcriptase assay (3), adapted for use with a Scintillation Proximity detection protocol (1) (Amersham Biosciences, Piscataway, N.J.).
• 1. Compounds stocks were prepared by dissolving in DMSO to 30 mM. For dilution plates, compounds were serially diluted 3-fold into DMSO, using 96-well polypropylene plates, so that the concentrations were 100-fold greater than the final assay concentration. For antiviral and cytotoxicity assays, 2 μl was added per well (1% final DMSO concentration). • 2. Compounds were added from dilution plates to 96 well tissue culture plates, containing 100 μl Medium RPMI-1640, containing 10% fetal bovine serum at a concentration of <20 μM. • 3. For antiviral assays, cells were infected at a multiplicity of infection of 0.005. After 1 h at 37° C., infected cells were diluted to 200,000 cells per ml in Medium RPMI-1640, containing 10% fetal bovine serum. 100 μl of this solution was added per well, giving a final volume of 200 μl. • 4. Plates were incubated at 37° C. in a humidified CO2 incubator and harvested after 5 days. • 5. Viral infections were monitored by measuring reverse transcriptase activity in the supernatants of infected wells as described above. The percent inhibition for each compound was calculated by quantifying the readout level in cells infected in the presence of each compound as a percentage of that observed for cells infected in the absence of compound and subtracting such a determined value from 100. • 6. An EC50 provides a method for comparing the antiviral potency of the compounds of this invention. The effective concentration for fifty percent inhibition (EC50) was calculated with the Microsoft Excel Xlfit curve fitting software. For each compound, curves were generated from percent inhibition calculated at 8 different concentrations by using a four paramenter logistic model (model 205).

SMILES: COc1cnc(-n2cnc(C)n2)c2[nH]cc(C(=O)C(=O)N3CCC(=C(C#N)c4ccccn4)CC3)c12 [IVe, 2-(1-(2-(4-methoxy-7-(3-methyl-1H-1,2,4-triazol-1-yl)-1H-pyrrolo[2,3-c]pyridin-3-yl)-2-oxoacetyl)piperidin-4-ylidene)-2-(pyridin-2-yl)acetonitrile]
parent molecule in plasma following PO dosing of prodrug [1]: detected in the plasma
AUC(0-t) ([2]; female, females): ≤ 644 µg·h/mL
AUC(0-t) ([2]; male, males): 527 µg·h/mL
autoinduction or accumulation ([2]; toxicokinetic evaluations on days 1 and 14): no evidence of autoinduction or accumulation

SMILES: O=C(C(=O)N1CCN(C(=O)c2ccccc2)CC1)c1cn(COP(=O)([O-])[O-])c2c(-n3ccnn3)ncc(F)c12.[Na+].[Na+] [Ib]
In vitro conversion in Alkaline phosphatase (note 1) [3]: Complete
solubility [4]: > 8000 µg/mL
In vivo conversion in Rats-iv (note 2) MAP study [5]: Rapid
half-life ([5]; in vivo): 108 ± 72 min
clearance ([5]; in vivo): 46 ± 10 mL/min/kg
Vd ([5]; in vivo): 0.97 ± 0.47 L/kg
In vivo conversion in Rats-oral (note 2) MAP study [5]: Rapid
AUC 0-24 h (μM * hr) [5]: LLQ
Cmax (uM) [5]: LLQ
Cp @ 24 hr p.o. (nM) [5]: LLQ

SMILES: COc1cnc(-n2ccc(C)n2)c2[nH]cc(C(=O)C(=O)N3CCN(C(=O)c4ccccc4)[C@H](C)C3)c12 [IVd]
CC50 at 6 days [6]: > 10 µM
EC50 [7]: < 1000 nM

SMILES: COc1cnc(-n2cnc(C)n2)c2c1c(C(=O)C(=O)N1CCC(=C(C#N)c3ccccn3)CC1)cn2COP(=O)(OC(C)(C)C)OC(C)(C)C [IIe]
F (%) (calc on historical IV data for parent) ([1]; rat, diester prodrug IIe PO 7.0 mg/kg (IVe eq), PK of IVe only): 7.7%
Cp @ 24 hr p.o. ([1]; rat, diester prodrug IIe PO 7.0 mg/kg (IVe eq), PK of IVe only, 1/3 rats): 8.17 (1/3 rats) nM

More lines, now with the values ahead:

parent molecule in plasma following PO dosing of prodrug [1]: detected in the plasma
SMILES: O=C(C(=O)N1CCN(c2ncnc3ccccc23)CC1)c1c[nH]c2c(-n3ccnn3)ncc(F)c12 [IVf]

In vitro conversion in Alkaline phosphatase (note 1) [3]: Complete
solubility [4]: 1000 µg/mL (≈ 1710 µM)
SMILES: COc1cnc(-n2cnc(C)n2)c2c1c(C(=O)C(=O)N1CCN(C(=O)c3ccccc3)CC1)cn2COP(=O)(O)O [Ic]

In vitro conversion in Alkaline phosphatase (note 1) [3]: Complete
solubility [4]: > 18000 µg/mL
In vivo conversion in Rats-iv (note 2) MAP study [5]: Rapid
clearance ([5]; plasma): 16 ± 0.95 mL/min/kg
Vd ([5]; plasma): 0.095 ± 0.001 L/kg
half-life ([5]; plasma, iv): 8.4 ± 1.2 min
In vivo conversion in Rats-oral (note 2) MAP study [5]: Rapid
AUC 0-24 h (μM * hr) [5]: LLQ
Cmax (uM) [5]: LLQ
Cp @ 24 hr p.o. (nM) [5]: LLQ
SMILES: COc1cnc(OC)c2c1c(C(=O)C(=O)N1CCN(C(=O)c3ccccc3)CC1)cn2COP(=O)(O)O [Ia]
